ChEMBL document CHEMBL1130666, “Benzimidazole derivatives as arginine mimetics in 1,4-benzodiazepine nonpeptide vitronectin receptor (alpha v beta 3) antagonists” (Bioorg Med Chem Lett, 1998)

Legend:
Integrin alpha-V/beta-3 [1] = target: T1, Integrin alpha-V/beta-3 (Homo sapiens, UniProt P05106+P06756); experiment: Binding affinity evaluated against vitronectin receptor (alphaV-beta3) receptor; assay type: protein-complex assay
Integrin alpha-V/beta-3 [2] = target: T1, Integrin alpha-V/beta-3; experiment: Effect against adhesion of HEK 293 cells transfected with human alpha-v beta-3 to vitronectin coated plates; assay type: functional, cell-based, HEK293
[3] = target: Integrin alpha-IIb/beta-3 (Homo sapiens, UniProt P05106+P08514); experiment: Affinity for alphaIIb-beta3 receptor; assay type: protein-complex assay
Integrin alpha-IIb/beta-3, sequence (P05106 27-788 limits assumed): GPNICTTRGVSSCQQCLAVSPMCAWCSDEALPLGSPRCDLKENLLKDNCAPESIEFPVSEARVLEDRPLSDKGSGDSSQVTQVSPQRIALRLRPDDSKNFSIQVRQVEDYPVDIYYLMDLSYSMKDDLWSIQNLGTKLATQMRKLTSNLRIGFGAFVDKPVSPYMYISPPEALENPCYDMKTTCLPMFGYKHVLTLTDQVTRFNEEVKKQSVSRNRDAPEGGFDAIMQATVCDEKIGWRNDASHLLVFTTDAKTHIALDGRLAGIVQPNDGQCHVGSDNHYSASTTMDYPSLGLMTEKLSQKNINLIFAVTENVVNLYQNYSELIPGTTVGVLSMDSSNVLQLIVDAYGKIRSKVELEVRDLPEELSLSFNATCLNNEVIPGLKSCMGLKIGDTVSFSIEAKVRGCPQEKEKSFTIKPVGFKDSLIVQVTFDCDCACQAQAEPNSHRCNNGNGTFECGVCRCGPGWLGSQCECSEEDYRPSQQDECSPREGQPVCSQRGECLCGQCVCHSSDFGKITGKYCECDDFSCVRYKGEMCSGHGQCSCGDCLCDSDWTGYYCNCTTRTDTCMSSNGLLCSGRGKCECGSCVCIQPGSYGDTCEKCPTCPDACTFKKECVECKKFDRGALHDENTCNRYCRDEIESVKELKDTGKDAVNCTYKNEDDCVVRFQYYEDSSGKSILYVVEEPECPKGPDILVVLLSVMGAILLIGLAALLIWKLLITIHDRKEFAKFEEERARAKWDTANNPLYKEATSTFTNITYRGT
Integrin alpha-IIb/beta-3, sequence (P08514 32-887 limits assumed): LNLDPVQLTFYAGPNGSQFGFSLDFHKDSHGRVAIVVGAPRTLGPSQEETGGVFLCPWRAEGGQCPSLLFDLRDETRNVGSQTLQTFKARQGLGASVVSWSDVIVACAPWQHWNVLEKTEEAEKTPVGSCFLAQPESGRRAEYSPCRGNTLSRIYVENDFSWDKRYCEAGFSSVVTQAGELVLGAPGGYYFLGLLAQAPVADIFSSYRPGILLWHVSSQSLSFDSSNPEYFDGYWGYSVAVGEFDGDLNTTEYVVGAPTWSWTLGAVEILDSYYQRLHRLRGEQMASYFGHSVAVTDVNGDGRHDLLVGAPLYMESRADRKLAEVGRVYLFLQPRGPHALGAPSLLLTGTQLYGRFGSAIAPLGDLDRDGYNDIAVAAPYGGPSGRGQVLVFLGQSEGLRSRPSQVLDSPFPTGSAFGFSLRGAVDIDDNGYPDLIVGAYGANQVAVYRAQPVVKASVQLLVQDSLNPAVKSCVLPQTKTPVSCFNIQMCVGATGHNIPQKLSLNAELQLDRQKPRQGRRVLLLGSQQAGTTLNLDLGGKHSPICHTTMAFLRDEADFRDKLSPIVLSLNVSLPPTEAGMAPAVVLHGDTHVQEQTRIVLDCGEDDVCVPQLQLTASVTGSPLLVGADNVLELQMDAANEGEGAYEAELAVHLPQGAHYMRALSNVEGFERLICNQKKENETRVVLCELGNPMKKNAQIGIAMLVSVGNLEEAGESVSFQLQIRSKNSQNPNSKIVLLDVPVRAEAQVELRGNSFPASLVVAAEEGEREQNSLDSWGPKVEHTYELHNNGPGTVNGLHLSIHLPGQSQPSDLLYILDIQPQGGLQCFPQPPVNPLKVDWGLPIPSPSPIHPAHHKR
Integrin alpha-IIb/beta-3, sequence (P08514 891-1039 limits assumed): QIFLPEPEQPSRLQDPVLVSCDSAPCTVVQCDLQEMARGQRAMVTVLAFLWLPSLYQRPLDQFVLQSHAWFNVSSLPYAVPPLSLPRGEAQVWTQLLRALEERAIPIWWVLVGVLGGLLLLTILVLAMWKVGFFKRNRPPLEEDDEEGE

T1 sequence (P05106 27-788 limits assumed): as the sequence (P05106 27-788 limits assumed) above
T1 sequence (P06756 31-889 limits assumed): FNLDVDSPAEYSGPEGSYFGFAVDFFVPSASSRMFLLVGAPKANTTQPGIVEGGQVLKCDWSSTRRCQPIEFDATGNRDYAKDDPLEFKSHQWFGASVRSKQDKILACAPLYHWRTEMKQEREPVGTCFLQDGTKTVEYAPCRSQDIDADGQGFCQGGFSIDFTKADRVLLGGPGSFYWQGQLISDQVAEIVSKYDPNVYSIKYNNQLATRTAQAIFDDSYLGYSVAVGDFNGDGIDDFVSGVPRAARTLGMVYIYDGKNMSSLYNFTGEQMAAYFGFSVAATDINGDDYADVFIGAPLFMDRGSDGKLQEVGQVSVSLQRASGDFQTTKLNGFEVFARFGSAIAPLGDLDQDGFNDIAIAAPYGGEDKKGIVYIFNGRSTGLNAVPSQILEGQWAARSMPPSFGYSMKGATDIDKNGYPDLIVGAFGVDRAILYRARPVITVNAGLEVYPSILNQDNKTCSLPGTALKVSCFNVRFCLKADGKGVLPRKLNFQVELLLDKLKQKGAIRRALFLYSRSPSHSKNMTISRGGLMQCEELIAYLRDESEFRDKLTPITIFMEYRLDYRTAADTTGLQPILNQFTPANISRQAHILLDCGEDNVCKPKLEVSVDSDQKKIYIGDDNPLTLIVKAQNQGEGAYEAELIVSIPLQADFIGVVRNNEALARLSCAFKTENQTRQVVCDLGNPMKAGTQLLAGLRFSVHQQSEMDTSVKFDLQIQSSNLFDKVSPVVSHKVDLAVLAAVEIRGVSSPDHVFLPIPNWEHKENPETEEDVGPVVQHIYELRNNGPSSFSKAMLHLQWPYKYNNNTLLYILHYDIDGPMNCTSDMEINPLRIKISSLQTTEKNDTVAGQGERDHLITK
T1 sequence (P06756 891-1048 limits assumed): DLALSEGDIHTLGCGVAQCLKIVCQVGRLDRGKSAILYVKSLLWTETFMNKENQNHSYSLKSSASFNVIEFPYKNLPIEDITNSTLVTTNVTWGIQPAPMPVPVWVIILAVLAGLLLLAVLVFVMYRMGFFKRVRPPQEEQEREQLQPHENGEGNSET

SMILES	Ki (Integrin alpha-V/beta-3 [1]) [nM]	IC50 (Integrin alpha-V/beta-3 [2]) [nM]	Ki [3] [nM]
CN1Cc2cc(C(=O)N(CC#N)Cc3nc4ccccc4[nH]3)ccc2N[C@@H](CC(=O)O)C1=O	4	810	–
CN(Cc1nc2c([nH]1)CCCC2)C(=O)c1ccc2c(c1)CN(C)C(=O)[C@H](CC(=O)O)N2	5	–	2750
Cc1cccc2[nH]c(CN(C)C(=O)c3ccc4c(c3)CN(C)C(=O)[C@H](CC(=O)O)N4)nc12	2	480	–
CN(Cc1nc2ccccc2[nH]1)C(=O)c1ccc2c(c1)CN(CCc1ccccc1)C(=O)[C@H](CC(=O)O)N2	4	90	–
CN(Cc1nc2cc(F)c(F)cc2[nH]1)C(=O)c1ccc2c(c1)CN(C)C(=O)[C@H](CC(=O)O)N2	2.5	540	–
CN1Cc2cc(C(=O)N(Cc3nc4ccccc4[nH]3)Cc3nc4ccccc4[nH]3)ccc2N[C@@H](CC(=O)O)C1=O	2.5	480	–
CN(Cc1nc2cc3c(cc2[nH]1)OCO3)C(=O)c1ccc2c(c1)CN(C)C(=O)[C@H](CC(=O)O)N2	9	690	–
CN1Cc2cc(C(=O)N(Cc3nc4ccccc4[nH]3)C3CCCCC3)ccc2N[C@@H](CC(=O)O)C1=O	750	–	–
CN(Cc1nc2c([N+](=O)[O-])cccc2[nH]1)C(=O)c1ccc2c(c1)CN(C)C(=O)[C@H](CC(=O)O)N2	13	1100	–
CCCCN(Cc1nc2ccccc2[nH]1)C(=O)c1ccc2c(c1)CN(C)C(=O)[C@H](CC(=O)O)N2	3.5	520	–
CN1Cc2cc(C(=O)N(CCc3ccccc3)Cc3nc4ccccc4[nH]3)ccc2N[C@@H](CC(=O)O)C1=O	5	280	–
COCCN1Cc2cc(C(=O)NCc3nc4ccccc4[nH]3)ccc2N[C@@H](CC(=O)O)C1=O (racemic)	28	3000	–
CN(Cc1nc2ccccc2[nH]1)C(=O)c1ccc2c(c1)CN(CCc1ccc3c(c1)OCO3)C(=O)[C@H](CC(=O)O)N2 (racemic)	6	250	–
O=C(O)C[C@@H]1Nc2ccc(C(=O)NCc3nc4ccccc4[nH]3)cc2CN(CCc2ccc3c(c2)OCO3)C1=O (racemic)	6.5	670	–
CN(Cc1nc2ccccc2[nH]1)C(=O)c1ccc2c(c1)CN(CCC(C)(C)C)C(=O)[C@H](CC(=O)O)N2 (racemic)	1.6	180	–
CN(Cc1nc2ccc([N+](=O)[O-])cc2[nH]1)C(=O)c1ccc2c(c1)CN(C)C(=O)[C@H](CC(=O)O)N2 (racemic)	14	3000	–
CN1Cc2cc(C(=O)NCc3ncc[nH]3)ccc2N[C@@H](CC(=O)O)C1=O (racemic)	2900	–	47000
CN(Cc1nc2ccccc2s1)C(=O)c1ccc2c(c1)CN(C)C(=O)[C@H](CC(=O)O)N2 (racemic)	480	–	29000
CN1Cc2cc(C(=O)NCc3cc4ccccc4[nH]3)ccc2N[C@@H](CC(=O)O)C1=O (racemic)	110	–	> 50000
CN(Cc1nc2ccccc2[nH]1)C(=O)c1ccc2c(c1)CN(Cc1ccccc1)C(=O)[C@H](CC(=O)O)N2 (racemic)	1.9	510	–
CC(C)(C)CCN1Cc2cc(C(=O)NCc3nc4ccccc4[nH]3)ccc2N[C@@H](CC(=O)O)C1=O (racemic)	15	1400	–

Now from value to compound:

Ki (Integrin alpha-V/beta-3 [1]) [nM]	IC50 (Integrin alpha-V/beta-3 [2]) [nM]	Ki [3] [nM]	SMILES
30	5000	–	O=C(O)C[C@@H]1Nc2ccc(C(=O)NCc3nc4ccccc4[nH]3)cc2CNC1=O
5.5	810	–	CN(Cc1nc2c(N)cccc2[nH]1)C(=O)c1ccc2c(c1)CN(C)C(=O)[C@H](CC(=O)O)N2
15	1500	–	O=C(O)C[C@@H]1Nc2ccc(C(=O)NCc3nc4ccccc4[nH]3)cc2CN(Cc2ccccc2)C1=O
1300	–	–	COc1ccc(OC)c2[nH]c(CN(C)C(=O)c3ccc4c(c3)CN(C)C(=O)[C@H](CC(=O)O)N4)nc12
8.5	1000	–	CN(Cc1nc2ccc(C(F)(F)F)cc2[nH]1)C(=O)c1ccc2c(c1)CN(C)C(=O)[C@H](CC(=O)O)N2
70	–	28000	CN(Cc1nc2ccccc2n1C)C(=O)c1ccc2c(c1)CN(C)C(=O)[C@H](CC(=O)O)N2
180	–	–	COc1cc2nc(CN(C)C(=O)c3ccc4c(c3)CN(C)C(=O)[C@H](CC(=O)O)N4)[nH]c2cc1OC
10	350	–	O=C(O)C[C@@H]1Nc2ccc(C(=O)NCc3nc4ccccc4[nH]3)cc2CN(CCc2cccnc2)C1=O
6.5	500	–	CN(Cc1nc2ccccc2[nH]1)C(=O)c1ccc2c(c1)CNC(=O)[C@H](CC(=O)O)N2
–	1650	–	CN1Cc2cc(C(=O)NCc3nc4ccccc4[nH]3)ccc2N[C@@H](CC(=O)O)C1=O
20	5100	–	CC(C)N1Cc2cc(C(=O)NCc3nc4ccccc4[nH]3)ccc2N[C@@H](CC(=O)O)C1=O (racemic)
1100	–	30000	CN(Cc1nc2ccccc2o1)C(=O)c1ccc2c(c1)CN(C)C(=O)[C@H](CC(=O)O)N2 (racemic)
15	690	–	CN(Cc1nc2cc(C#N)ccc2[nH]1)C(=O)c1ccc2c(c1)CN(C)C(=O)[C@H](CC(=O)O)N2 (racemic)
3	340	–	COCCN1Cc2cc(C(=O)N(C)Cc3nc4ccccc4[nH]3)ccc2N[C@@H](CC(=O)O)C1=O (racemic)
27	4500	–	O=C(O)C[C@@H]1Nc2ccc(C(=O)NCc3nc4ccccc4[nH]3)cc2CN(CC(=O)O)C1=O (racemic)
19	900	–	CN(Cc1nc2ccc(N)cc2[nH]1)C(=O)c1ccc2c(c1)CN(C)C(=O)[C@H](CC(=O)O)N2 (racemic)
9	750	–	O=C(O)C[C@@H]1Nc2ccc(C(=O)NCc3nc4ccccc4[nH]3)cc2CN(CCc2ccccc2)C1=O (racemic)
11	900	–	CN(Cc1nc2cc(Cl)ccc2[nH]1)C(=O)c1ccc2c(c1)CN(C)C(=O)[C@H](CC(=O)O)N2 (racemic)
24	3600	–	CN1Cc2cc(C(=O)NCc3nc4ccccc4[nH]3)ccc2N[C@@H](CC(=O)O)C1=O (racemic)
